What all share (type): functional, cell-based
One test deals with HCT-15. The test can be described thus: Cytotoxicity against human HCT15 cells by SRB assay. On the technique in general: The SRB assay estimates cell density from bound dye.
For another test, the system named is SK-OV-3. Briefly: Cytotoxicity against human SKOV3 cells by SRB assay.
In another test the test system is SK-MEL-2. Briefly: Cytotoxicity against human SK-MEL-2 cells by SRB assay.
A further test concerns A549. Briefly: Cytotoxicity against human A549 cells by SRB assay.

A value given as a limit tells only on which side of the number the result lay.

As to `CC1(C)C[C@H]2[C@H](O)C3=C(C[C@](C)(O)[C@H]2C1)C(=O)OC3` [LACTARORUFIN A], the IC50 in the test on HCT-15 is 20.9 µM; with SK-OV-3, more than 30 µM; with SK-MEL-2 it was more than 30 µM; in the test with A549 it was 27 µM.
As to `COc1cccc2c1C(=O)c1c(O)c3c(c(O)c1C2=O)C[C@@](O)(C(=O)CO)C[C@@H]3O[C@H]1C[C@H](N)[C@H](O)[C@H](C)O1` [DOXORUBICIN], the IC50 worked out at 0.028 µM in the test on HCT-15, 0.001 µM in the test on SK-OV-3 and 0.002 µM in the test on SK-MEL-2.
Turning to `C[C@@H]1[C@@H]2C(=CC3=C(C(=O)O[C@H]3O)[C@@H]1O)CC(C)(C)[C@@H]2O` [SUBVELLEROLACTONES E], the IC50 in the test with HCT-15 was 28.7 µM; with SK-OV-3, more than 30 µM; in the test with SK-MEL-2, more than 30 µM; with A549 it was 19.6 µM.
Take `C[C@H]1CC2=C(COC2=O)C[C@@H]2[C@@H](O)[C@](C)(CO)C[C@@]21O` [SUBVELLEROLACTONES B]: the IC50 was 14.2 µM with HCT-15, more than 30 µM in the test with SK-OV-3, 18.3 µM with SK-MEL-2 and 26.5 µM in the test on A549.
The matching figures for `CC1(C)C[C@H]2[C@H](O)C3=C(C[C@](C)(O)[C@H]2C1)C(=O)OC3O` (stereo partly specified) [LACTAROLIDE A]: 28.6 µM, more than 30 µM, 28.3 µM and 22.9 µM.
In the same order, the values of `C[C@@H]1[C@@H]2C(=CC3=C(C(=O)O[C@@H]3O)[C@@H]1O)CC(C)(C)[C@@H]2O` [SUBVELLEROLACTONES D] are 17.8 µM, more than 30 µM, more than 30 µM and 25.1 µM.
In the same order, the values of `CC1(C)C[C@H]2[C@H](O)c3cocc3C[C@](C)(O)[C@H]2C1` [FURANDIOL] are more than 30 µM, more than 30 µM, more than 30 µM and more than 30 µM.
For `CC1(C)C[C@@H]2[C@H]([C@H]1O)[C@@](C)(O)CC1=C(C(=O)OC1)[C@H]2O` [5-DESOXYLACTAROLIDE B], the IC50 with HCT-15 was 29.3 µM; in the test with SK-OV-3 it was more than 30 µM; in the test on SK-MEL-2, more than 30 µM; with A549, 17.9 µM.

Broadly, the IC50 is the concentration that gives 50% inhibition.

These data come from ChEMBL document CHEMBL1221373, “Lactarane sesquiterpenoids from Lactarius subvellereus and their cytotoxicity” (Bioorg Med Chem Lett, 2010).
